Results: patent US20120238488A1, “COMPOUNDS AND METHODS FOR TREATING NEOPLASIA” (priority 2009, published 2012)
Read-outs that look alike come from different tables or passages of the source.

Legend:
[1] = test system: HCT116 colon cancer, PC3 and DU145 prostate cancer cell lines; experiment: MTT proliferation/viability assay; assay type: cell-based; settings: 72 h, FIGS. 1A-1D, HCT116 only compound 120
Experimental: All assays were performed in triplicate.
The effect of the different compounds on the proliferation and viability of cancer cell lines was tested. Compound 120 was tested in one colon cancer cell line (HCT116), and compound Nos. 120, 12, 61, 1, and 56 were tested in two prostate cancer cell lines (PC3 and DU145). […] This colorimetric assay uses the reduction of MTT to formazan as a measure of metabolic activity. Untreated cells cultured in the presence of serum were used as a negative control.

[2] = test system: 22 different cell lines, nine tumor panels (lung, melanoma, ovary, prostate, CNS, breast, pancreas colon and renal); experiment: SRB assay, all tumor cell line panels (summary statements); assay type: cell-based, human; settings: for viability and/or cell proliferation of neoplastic cell lines: lung, breast, CNS, colon, prostate, ovary, pancreas, kidney and melanoma lines, including a multidrug resistant cell line
Experimental: (§1) SRB assays were performed according to standard National Cancer Institute Guidelines. Briefly, human tumor cells from different cancer panels were seeded into 96 well plates in 100 μL (plating densities ranging from 5-40,000 cells/well depending on the doubling time of individual cell lines) in serum-containing media for twenty-four hours prior to the addition of the compounds to be assayed. After 24 hours, one plate of each cell line was fixed in situ with trichloroacetic acid (TCA). The fixed slides were used to determine the cell population for each cell line at the time of drug addition (Tz). Each compound to be tested was solubilized in DMSO and the desired concentration was then added to the medium and diluted serially 1:10 to provide a total of five or ten drug concentrations plus control (in a final volume of 200 μL). The starting dose before any dilution was 100 uM for all compounds.
(§2) Following drug addition, each culture was incubated for forty-eight hours. The assay was terminated with the addition of cold TCA. The supernatant was discarded, and the plates were washed with tap water and air dried. Sulforhodamine B (SRB) solution was then added to each well. After staining, the bound stain was solubilized and the absorbance was read on an automated plate reader at a wavelength of 515 nm.
(§3) Using the absorbance measurements [time zero, (Tz), control growth, (C), and test growth in the presence of drug at the ten concentration levels (Ti)], the percentage growth was calculated at each of the drug concentrations levels. Percentage growth inhibition was calculated as:
Three dose response parameters were calculated for each experimental agent. […] The drug concentration resulting in total growth inhibition (TGI) was calculated from Ti=Tz. The LC50 (concentration of drug resulting in a 50% reduction in the measured protein at the end of the drug treatment as compared to that at the beginning) indicating a net loss of cells following treatment was calculated from [(Ti−Tz)/Tz]×100=−50.
Each of these parameters in Table 4 was calculated in a sulforhodamine B (SRB) assay, which provides a colorimetric measure of a compound's anti-cancer activity. SRB assays were performed with compounds of the invention in 22 different cell lines (shaded in light gray in Table 4), which represent nine different tumor panels (lung, melanoma, ovary, prostate, CNS, breast, pancreas colon and renal). […] Paclitaxel was added as a non-Na^+K^+-ATPase inhibitor control.

U251 (CNS) = experiment: SRB assay, U251; assay type: cell-based, human; settings: for CC50 / GI50: Homo sapiens; for CC50: read-out: LC50
Experimental: as §1, §2, §3
(§4) [(Ti−Tz)/(C−Tz)]×100 for concentrations for which Ti>/=Tz
(§5) [(Ti−Tz)/Tz]×100 for concentrations for which Ti<Tz.
(§6) Three dose response parameters were calculated for each experimental agent. Growth inhibition of 50% (GI50) was calculated from [(Ti−Tz)/(C−Tz)]×100=50, which was the drug concentration resulting in a 50% reduction in the net protein increase (as measured by SRB staining) in control cells during the drug. The drug concentration resulting in total growth inhibition (TGI) was calculated from Ti=Tz. The LC50 (concentration of drug resulting in a 50% reduction in the measured protein at the end of the drug treatment as compared to that at the beginning) indicating a net loss of cells following treatment was calculated from [(Ti−Tz)/Tz]×100=−50.
(§7) Values were calculated for each of these three parameters when the level of activity was reached; however, if the effect was not reached or was exceeded, the value for that parameter was expressed as greater or less than the maximum or minimum concentration tested.
(§8) Table 4 summarizes results characterizing the effects of compound Nos. 120, 12, 61, 1, and 56 on GI50, which measures the cell growth inhibitory power of the compound, TGI, which measures cytostatic effect (TGI) and LC50, which signifies cytotoxic effect. Each of these parameters in Table 4 was calculated in a sulforhodamine B (SRB) assay, which provides a colorimetric measure of a compound's anti-cancer activity. SRB assays were performed with compounds of the invention in 22 different cell lines (shaded in light gray in Table 4), which represent nine different tumor panels (lung, melanoma, ovary, prostate, CNS, breast, pancreas colon and renal). Ouabain and digoxin were used as controls. Paclitaxel was added as a non-Na^+K^+-ATPase inhibitor control.

LOXIMVI (Melanoma) = experiment: SRB assay, LOXIMVI; assay type: cell-based, human; settings: 48 h; for CC50 / GI50: Homo sapiens, LOX IMVI; for CC50: read-out: LC50; for GI50 / TGI: LOXIMVI, SRB
Experimental: as §1, §2, §3, §4, §5, §6, §7, §8

H160 (Lung) = experiment: SRB assay, H160; assay type: cell-based, human; settings: 48 h; for TGI / GI50: H160, SRB; for CC50 / GI50: Homo sapiens; for CC50: read-out: LC50
Experimental: as §1, §2, §3, §4, §5, §6, §7, §8

HCT15 (Colon) = experiment: SRB assay, HCT15; assay type: cell-based, human; settings: for TGI / GI50: HCT15, SRB, 48 h; for CC50 / GI50: Homo sapiens; for CC50: HCT-15, 48 h, read-out: LC50; for GI50: HCT-15
Experimental: as §1, §2, §3, §4, §5, §6, §7, §8

MCF7 (Breast) = experiment: SRB assay, MCF7; assay type: cell-based, human; settings: for CC50 / GI50: Homo sapiens; for CC50: MCF7, 48 h, read-out: LC50; for GI50 / TGI: MCF7, SRB, 48 h
Experimental: as §1, §2, §3, §4, §5, §6, §7, §8

IGROV1 (Ovary) = experiment: SRB assay, IGROV1; assay type: cell-based, human; settings: for CC50 / GI50: Homo sapiens; for CC50: IGROV-1, 48 h, read-out: LC50; for GI50: IGROV-1; for GI50 / TGI: IGROV1, SRB, 48 h
Experimental: as §1, §2, §3, §4, §5, §6, §7, §8

SU8686 (Pancreas) = experiment: SRB assay, SU8686; assay type: cell-based, human; settings: for CC50 / GI50: Homo sapiens; for CC50: SU.86.86, 48 h, read-out: LC50; for GI50: SU.86.86; for GI50 / TGI: SU8686, SRB, 48 h
Experimental: as §1, §2, §3, §4, §5, §6, §7, §8

[3] = U-251, U251, SRB, 48 h, read-out: GI50

Compound | inhibition of cell proliferation and viability (MTT) [1] | GI50 action in all cell line panels tested (in words) ([2]; SRB, all cell line panels) | viability and/or cell proliferation of neoplastic cell lines [2] | CC50 (U251 (CNS); U-251, 48 h) [µM] | GI50 (U251 (CNS); [3]) [µM] | CC50 (LOXIMVI (Melanoma)) [µM] | GI50 (LOXIMVI (Melanoma)) [µM] | TGI (LOXIMVI (Melanoma)) [µM] | TGI (H160 (Lung)) [µM] | CC50 (H160 (Lung)) [µM] | GI50 (H160 (Lung)) [µM] | TGI (HCT15 (Colon)) [µM] | CC50 (HCT15 (Colon)) [µM] | GI50 (HCT15 (Colon)) [µM] | CC50 (MCF7 (Breast)) [µM] | GI50 (MCF7 (Breast)) [µM] | TGI (MCF7 (Breast)) [µM] | CC50 (IGROV1 (Ovary)) [µM] | GI50 (IGROV1 (Ovary)) [µM] | TGI (IGROV1 (Ovary)) [µM] | other results
C[C@]12CCC(=NOCCN)CC1CCC1C2CC[C@]2(C)C(=O)CCC12 (stereo partly drawn) [Compound 1, (10S,13S)-3-(2-aminoethoxyimino)-10,13-dimethyltetradecahydro-1H-cyclopenta[a]phenanthren-17(2H)-one] | strong inhibition of cell proliferation and viability | nanomolar GI50 action | reduced the viability and/or cell proliferation | – | – | – | – | – | – | – | – | – | – | – | – | – | – | – | – | – | –
C[C@]12CCC(=NOC3CCNC3)C=C1CCC1C2CC[C@]2(C)C(=O)CCC12 (stereo partly drawn) [Compound 61, (10R,13S)-10,13-dimethyl-3-(pyrrolidin-3-yloxyimino)-2,3,7,8,9,10,11,12,13,14,15,16-dodecahydro-1H-cyclopenta[a]phenanthren-17(6H)-one] | strong inhibition of cell proliferation and viability | nanomolar GI50 action | reduced the viability and/or cell proliferation | – | – | – | – | – | – | – | – | – | – | – | – | – | – | – | – | – | –
C[C@]12CCC(=NOCCN)C=C1CCC1C2CC[C@]2(C)C(=O)CCC12 (stereo partly drawn) [Compound 12, (10R,13S)-3-(2-aminoethoxyimino)-10,13-dimethyl-2,3,7,8,9,10,11,12,13,14,15,16-dodecahydro-1H-cyclopenta[a]phenanthren-17(6H)-one] | strong inhibition of cell proliferation and viability | mostly single-digit micromolar GI50 action | reduced the viability and/or cell proliferation | 8.61 | 3.09 | ≥ 117 | 0.66 | 24.06 | 5.86 | 8.73 | 2.99 | 6.70 | 9.61 | 3.79 | 9.47 | 3.79 | 6.63 | 68.4 | 5.37 | 12.38 | TGI (U251 (CNS); U251, SRB, 48 h): 5.85 µM
C[C@]12CCC(=NOCCN)C=C1CCC1C2CC[C@@]2(C)C1CC[C@@H]2O (stereo partly drawn) [Compound 120, (1S,9aR,11aS)-17-hydroxy-10,13-dimethyl-6,7,8,9,10,11,12,13,14,15,16,17-dodecahydro-1H-cyclopenta[a]phenanthren-3(2H)-one O-2-aminoethyl oxime] | strong inhibition of cell proliferation and viability | mostly single-digit micromolar GI50 action | reduced the viability and/or cell proliferation | 68.5 | 6.77 | 97.2 | 7.14 | 25.19 | 11.68 | 21.7 | 4.13 | 23.51 | 76.3 | 6.39 | 24.1 | 7.04 | 14.85 | 67.4 | 5.49 | 10.74 | TGI (U251 (CNS); U251, SRB, 48 h): 27.92 µM; CC50 (SU8686 (Pancreas)): 23.1 µM; GI50 (SU8686 (Pancreas)): 7.45 µM; TGI (SU8686 (Pancreas)): 15.27 µM
C[C@H]1O[C@@H](O[C@H]2[C@@H](O)C[C@H](O[C@H]3[C@@H](O)C[C@H](O[C@H]4CC[C@@]5(C)[C@H](CC[C@@H]6[C@@H]5C[C@@H](O)[C@]5(C)[C@@H](C7=CC(=O)OC7)CC[C@]65O)C4)O[C@@H]3C)O[C@@H]2C)C[C@H](O)[C@@H]1O [Digoxin, reference compound] | – | – | – | 0.61 | – | > 100 | 0.08 | >100 | <0.08 | 0.3 | < 0.08 | 0.06 | 0.16 | 0.03 | 0.4 | < 0.08 | 0.1 | > 100 | 0.04 | 0.35 | TGI (U251 (CNS)): 0.10 µM; GI50 (U251 (CNS); U-251, 48 h): 0.02 µM; CC50 (SU8686 (Pancreas)): 0.63 µM; GI50 (SU8686 (Pancreas)): 0.03 µM; TGI (SU8686 (Pancreas)): 0.09 µM
CC(=O)O[C@H]1C(=O)[C@@]2(C)[C@H]([C@H](OC(=O)c3ccccc3)[C@]3(O)C[C@H](OC(=O)[C@H](O)[C@@H](NC(=O)c4ccccc4)c4ccccc4)C(C)=C1C3(C)C)[C@]1(OC(C)=O)CO[C@@H]1C[C@@H]2O [Paclitaxel, reference compound] | – | – | – | 6.73 | < 0.001 | 5.18 | < 0.001 | 0.288 | 3.7685 | > 10 | < 0.1 | 0.852 | 12.3 | 0.053 | > 10 | < 0.1 | >10 | 10.6 | 0.001 | 3.305 | TGI (U251 (CNS); U251, SRB, 48 h): 1.745 µM; CC50 (SU8686 (Pancreas)): 16.5 µM; GI50 (SU8686 (Pancreas)): 0.008 µM; TGI (SU8686 (Pancreas)): 7.927 µM
C[C@]12CCC(=NOC3CCNC3)CC1CCC1C2CC[C@]2(C)C(=O)CCC12 (stereo partly drawn) [Compound 56, (10S,13S)-10,13-dimethyl-3-(pyrrolidin-3-yloxyimino)tetradecahydro-1H-cyclopenta[a]phenanthren-17(2H)-one] | strong inhibition of cell proliferation and viability | nanomolar GI50 action | reduced the viability and/or cell proliferation | – | – | – | – | – | – | – | – | – | – | – | – | – | – | – | – | – | GI50 ([2]; Homo sapiens, SRB, all cell line panels, read-out: GI50 activity for all cell line panels tested): < 0.1 µM
